Test results published in ChEMBL document CHEMBL3797106, “Potent and Selective Agonists of Sphingosine 1-Phosphate 1 (S1P1): Discovery and SAR of a Novel Isoxazole Based Series” (J Med Chem, 2016).
pIC50: −log10 of the molar value. Active and inactive are the calls of the source. The calls are words filed in the database; no cut-off is given here.

Assays:
[1] = Oral bioavailability in cynomolgus monkey at 5 mg/kg; type: ADME, organism-based, Macaca fascicularis; conditions: in vivo
[2] = system: Cynomolgus monkey; test: Ratio of Cmax to Cmin in cynomolgus monkey at 5 mg/kg, po; type: ADME, organism-based, Macaca fascicularis; conditions: in vivo
[3] = Cmax in dog at 1 mg/kg, po; type: ADME, organism-based, Canis lupus familiaris; set-up: dose 1 mg/kg, route oral; conditions: in vivo
[4] = Mean residence time in dog at 1 mg/kg, iv; type: ADME, organism-based, Canis lupus familiaris; conditions: in vivo
[5] = Clearance in dog at 1 mg/kg, iv; type: ADME, organism-based, Canis lupus familiaris; conditions: in vivo
[6] = Volume of distribution at steady state in dog at 1 mg/kg, iv; type: ADME, organism-based, Canis lupus familiaris; conditions: in vivo, read-out: Vdss
[7] = system: Rattus norvegicus; test: Antiarthritic activity in po dosed complete Freund's adjuvant-induced Lewis rat arthritis model assessed as suppression of paw swelling administered as qd for 21 days started from day of immunization measured 3 times per week of compound dosing by water displacement plethysmometry; type: functional; conditions: 504 h
[8] = system: Rattus norvegicus; test: Antiarthritic activity in complete Freund's adjuvant-induced Lewis rat arthritis model assessed as suppression of paw swelling at 0.5 to 3 mg/kg, po qd for 21 days started from day of immunization measured 3 times per week of compound dosing by water displacement plethysmometry; type: functional, organism-based
[9] = system: Rattus norvegicus; test: Antiarthritic activity in complete Freund's adjuvant-induced Lewis rat arthritis model assessed as suppression of paw swelling at 0.1 mg/kg, po qd for 21 days started from day of immunization measured 3 times per week of compound dosing by water displacement plethysmometry relative to control; type: functional
[10] = system: Rattus norvegicus; test: Antiarthritic activity in po dosed complete Freund's adjuvant-induced Lewis rat arthritis model assessed as inhibition of bone resorption administered as qd for 21 days started from day of immunization; type: functional, organism-based
[11] = system: Mus musculus; test: Reduction in overall disease severity in po dosed C57BL/6 mouse experimental autoimmune encephalomyelitis model of multiple sclerosis administered as qd for 24 days started from day of immunization measured 3 times per week of compound dosing; type: functional, organism-based
[12] = system: Mus musculus; test: Inhibition of demyelination in spinal cord of po dosed C57BL/6 mouse experimental autoimmune encephalomyelitis model of multiple sclerosis administered as qd for 24 days started from day of immunization; type: functional, organism-based
[13] = system: Mus musculus; test: Reduction in clinical score in po dosed C57BL/6 mouse experimental autoimmune encephalomyelitis model of multiple sclerosis administered as qd for 24 days started from day of immunization measured 3 times per week of compound dosing; type: functional; conditions: C57BL/6, po, 576 h
[14] = system: Rattus norvegicus; test: Reduction of blood lymphocyte level in Lewis rat at 1 mg/kg, po measured at 4 hrs by hematology analyzer relative to vehicle-treated control; type: functional; set-up: scale not given: the % may be the effect or the level left
[15] = system: Rattus norvegicus; test: Reduction of blood lymphocyte level in Lewis rat at 1 mg/kg, po measured at 24 hrs by hematology analyzer relative to vehicle-treated control; type: functional; set-up: scale not given: the % may be the effect or the level left
[16] = Plasma concentration in Lewis rat at 1 mg/kg, po measured at 24 hrs; type: ADME, organism-based
[17] = system: Plasma; test: Ratio drug level in Lewis rat plasma at 1 mg/kg, po at 4 hrs to drug level in Lewis rat plasma at 1 mg/kg, po at 24 hrs; type: ADME, organism-based; conditions: in vivo
[18] = target: Sphingosine 1-phosphate receptor 1 (Homo sapiens, UniProt P21453); test: Induction of internalization of C-terminal GFP-fused human S1P1 receptor expressed in CHO […] assessed as remaining receptor level in cell membrane at 4.6 nM preincubated for 50 mins followed by compound washout measured at 4 hrs relative to control; type: cell-based
[19] = Plasma protein binding in dog; type: ADME, cell-free, Canis lupus familiaris; conditions: read-out: PPB
[20] = system: Salmonella typhi; test: Mutagenicity in Salmonella typhi by Ames test; type: toxicity, organism-based; conditions: salmonella enterica subsp. enterica […]
[21] = target: Voltage-gated inwardly rectifying potassium channel KCNH2 (Homo sapiens, UniProt Q12809); test: Inhibition of human ERG by patch clamp method
[22] = target: T1, Cytochrome P450 1A2 (Homo sapiens, UniProt P05177); test: Inhibition of CYP1A2 (unknown origin); type: ADME
T1 sequence (P05177 whole entry): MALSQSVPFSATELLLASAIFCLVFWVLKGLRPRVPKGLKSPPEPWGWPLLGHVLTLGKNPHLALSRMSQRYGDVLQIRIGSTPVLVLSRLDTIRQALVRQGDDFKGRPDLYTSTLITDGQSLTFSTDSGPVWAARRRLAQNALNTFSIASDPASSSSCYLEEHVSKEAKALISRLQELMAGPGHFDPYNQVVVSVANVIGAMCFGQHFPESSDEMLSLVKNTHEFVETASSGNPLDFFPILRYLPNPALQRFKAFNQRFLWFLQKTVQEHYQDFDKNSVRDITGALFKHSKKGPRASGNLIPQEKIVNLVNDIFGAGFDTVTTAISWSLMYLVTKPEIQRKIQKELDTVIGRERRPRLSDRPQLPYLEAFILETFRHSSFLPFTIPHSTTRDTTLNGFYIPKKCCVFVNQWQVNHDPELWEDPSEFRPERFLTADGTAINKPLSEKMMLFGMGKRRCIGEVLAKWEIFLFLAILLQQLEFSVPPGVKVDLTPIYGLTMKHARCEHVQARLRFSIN

[23] = target: Cytochrome P450 2C9 (Homo sapiens, UniProt P11712); test: Inhibition of CYP2C9 (unknown origin); type: ADME
[24] = target: Cytochrome P450 2D6 (Homo sapiens, UniProt P10635); test: Inhibition of CYP2D6 (unknown origin); type: ADME
[25] = Lipophilicity, log D of the compound at pH 6.5; type: physicochemical; conditions: buffer
[26] = system: Rattus norvegicus; test: Reduction of blood lymphocyte level in Lewis rat at 0.03 mg/kg, po measured at 4 hrs by hematology analyzer relative to vehicle-treated control; type: functional; set-up: scale not given: the % may be the effect or the level left
[27] = system: Rattus norvegicus; test: Reduction of blood lymphocyte level in Lewis rat at 0.03 mg/kg, po measured at 24 hrs by hematology analyzer relative to vehicle-treated control; type: functional; set-up: scale not given: the % may be the effect or the level left
[28] = Plasma concentration in Lewis rat at 0.03 mg/kg, po measured at 24 hrs; type: ADME, organism-based
[29] = system: Plasma; test: Ratio drug level in Lewis rat plasma at 0.03 mg/kg, po at 4 hrs to drug level in Lewis rat plasma at 0.03 mg/kg, po at 24 hrs; type: ADME, organism-based; conditions: in vivo
[30] = system: Rattus norvegicus; test: Reduction of blood lymphocyte level in po dosed Lewis rat measured at 4 to 24 hrs by hematology analyzer; type: functional, organism-based
[31] = Tmax in mouse at 10 mg/kg, po; type: ADME, organism-based; conditions: in vivo
[32] = system: Mus musculus; test: AUC in mouse at 10 mg/kg, po; type: ADME, organism-based; conditions: in vivo
[33] = Mean residence time in mouse at 2 mg/kg, iv; type: ADME, organism-based; conditions: in vivo
[34] = system: Mus musculus; test: Clearance in mouse at 2 mg/kg, iv relative to hepatic blood flow; type: ADME, organism-based; conditions: in vivo
[35] = Half life in rat at 2 mg/kg, iv; type: ADME, organism-based; conditions: in vivo
[36] = Mean residence time in rat at 2 mg/kg, iv; type: ADME, organism-based; conditions: in vivo
[37] = Volume of distribution at steady state in rat at 2 mg/kg, iv; type: ADME, organism-based; conditions: in vivo, read-out: Vdss
[38] = Oral bioavailability in rat at 5 mg/kg; type: ADME, organism-based; conditions: in vivo
[39] = system: Rattus norvegicus; test: Ratio of Cmax to Cmin in rat at 5 mg/kg, po; type: ADME, organism-based; conditions: in vivo
[40] = AUC in cynomolgus monkey at 5 mg/kg, po; type: ADME, organism-based, Macaca fascicularis; conditions: in vivo
[41] = Half life in cynomolgus monkey at 2 mg/kg, iv; type: ADME, organism-based, Macaca fascicularis; conditions: in vivo
[42] = system: Cynomolgus monkey; test: Clearance in cynomolgus monkey at 2 mg/kg, iv relative to hepatic blood flow; type: ADME, organism-based, Macaca fascicularis; conditions: in vivo

Chain of Cytochrome P450 2D6 (P10635 whole entry): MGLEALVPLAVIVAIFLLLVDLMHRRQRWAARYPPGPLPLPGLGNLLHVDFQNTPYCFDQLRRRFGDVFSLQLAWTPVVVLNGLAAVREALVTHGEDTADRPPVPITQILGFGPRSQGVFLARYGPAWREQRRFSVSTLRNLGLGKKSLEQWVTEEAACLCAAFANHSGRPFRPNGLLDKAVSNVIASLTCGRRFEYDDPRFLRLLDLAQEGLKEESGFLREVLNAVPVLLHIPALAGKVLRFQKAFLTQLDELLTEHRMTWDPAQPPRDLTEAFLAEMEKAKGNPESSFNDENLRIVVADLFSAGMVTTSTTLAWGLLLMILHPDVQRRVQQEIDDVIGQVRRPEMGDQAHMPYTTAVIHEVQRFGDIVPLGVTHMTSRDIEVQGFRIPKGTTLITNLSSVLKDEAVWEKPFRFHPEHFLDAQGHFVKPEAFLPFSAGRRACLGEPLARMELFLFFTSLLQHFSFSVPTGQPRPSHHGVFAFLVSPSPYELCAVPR
Chain of Sphingosine 1-phosphate receptor 1 (P21453 whole entry, the tested form may be a part): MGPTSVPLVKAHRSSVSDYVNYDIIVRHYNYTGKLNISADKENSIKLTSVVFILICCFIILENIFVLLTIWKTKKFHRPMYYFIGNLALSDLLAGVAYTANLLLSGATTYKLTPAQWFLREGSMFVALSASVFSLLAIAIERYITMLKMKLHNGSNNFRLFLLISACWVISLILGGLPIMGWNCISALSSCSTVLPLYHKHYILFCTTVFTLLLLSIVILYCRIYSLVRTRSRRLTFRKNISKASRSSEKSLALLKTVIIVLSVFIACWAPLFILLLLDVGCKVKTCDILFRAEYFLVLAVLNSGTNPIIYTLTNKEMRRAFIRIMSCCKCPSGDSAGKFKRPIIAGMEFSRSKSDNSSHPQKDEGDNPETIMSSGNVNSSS
Chain of Voltage-gated inwardly rectifying potassium channel KCNH2 (Q12809 whole entry): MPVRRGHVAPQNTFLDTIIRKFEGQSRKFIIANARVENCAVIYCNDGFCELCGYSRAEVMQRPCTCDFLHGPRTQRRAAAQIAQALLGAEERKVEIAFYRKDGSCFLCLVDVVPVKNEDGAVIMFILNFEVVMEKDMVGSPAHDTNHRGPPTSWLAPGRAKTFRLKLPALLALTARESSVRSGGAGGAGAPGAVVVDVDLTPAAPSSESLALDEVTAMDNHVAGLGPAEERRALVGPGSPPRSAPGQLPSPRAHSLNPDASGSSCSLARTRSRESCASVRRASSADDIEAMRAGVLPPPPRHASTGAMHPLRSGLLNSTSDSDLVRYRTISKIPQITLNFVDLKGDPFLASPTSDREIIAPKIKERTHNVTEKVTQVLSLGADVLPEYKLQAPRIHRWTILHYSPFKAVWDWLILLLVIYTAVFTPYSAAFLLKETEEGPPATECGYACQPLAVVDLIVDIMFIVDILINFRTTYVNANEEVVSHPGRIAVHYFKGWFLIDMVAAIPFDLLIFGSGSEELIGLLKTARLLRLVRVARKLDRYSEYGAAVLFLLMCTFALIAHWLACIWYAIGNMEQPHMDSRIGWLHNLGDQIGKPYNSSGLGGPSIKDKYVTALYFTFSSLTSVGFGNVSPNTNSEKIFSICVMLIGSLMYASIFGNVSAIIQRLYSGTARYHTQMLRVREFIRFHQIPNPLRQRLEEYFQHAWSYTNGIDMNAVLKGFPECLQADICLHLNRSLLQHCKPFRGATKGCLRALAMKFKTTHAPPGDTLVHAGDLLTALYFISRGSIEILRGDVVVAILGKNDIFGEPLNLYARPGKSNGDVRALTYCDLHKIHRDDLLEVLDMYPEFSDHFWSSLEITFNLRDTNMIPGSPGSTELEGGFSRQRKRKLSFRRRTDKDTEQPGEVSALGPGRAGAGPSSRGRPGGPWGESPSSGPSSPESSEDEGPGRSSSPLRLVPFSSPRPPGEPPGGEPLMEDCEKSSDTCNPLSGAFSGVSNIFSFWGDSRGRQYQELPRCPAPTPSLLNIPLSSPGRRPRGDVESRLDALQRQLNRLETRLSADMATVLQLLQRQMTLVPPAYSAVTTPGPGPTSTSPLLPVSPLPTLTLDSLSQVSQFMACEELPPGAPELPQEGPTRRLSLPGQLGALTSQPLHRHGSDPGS
Chain of Cytochrome P450 2C9 (P11712 whole entry): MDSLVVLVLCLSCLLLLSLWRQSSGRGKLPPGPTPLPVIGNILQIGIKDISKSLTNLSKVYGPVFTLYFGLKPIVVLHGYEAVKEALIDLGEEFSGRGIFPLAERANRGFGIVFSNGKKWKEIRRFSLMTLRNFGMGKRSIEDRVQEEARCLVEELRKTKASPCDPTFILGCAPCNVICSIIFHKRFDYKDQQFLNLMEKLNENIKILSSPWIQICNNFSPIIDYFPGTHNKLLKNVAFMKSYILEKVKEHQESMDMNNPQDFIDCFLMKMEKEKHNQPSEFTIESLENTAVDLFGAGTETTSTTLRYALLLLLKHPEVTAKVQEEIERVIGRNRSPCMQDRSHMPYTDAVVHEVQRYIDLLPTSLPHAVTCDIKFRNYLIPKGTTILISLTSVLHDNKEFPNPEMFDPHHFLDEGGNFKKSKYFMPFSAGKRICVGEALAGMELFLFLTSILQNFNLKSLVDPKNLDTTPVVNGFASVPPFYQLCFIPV

O=C(O)C1CN(Cc2ccc(-c3noc(-c4onc(-c5ccccc5)c4C(F)(F)F)n3)cc2)C1
bioavailability [1]: 70%
Ratio [2]: 37
Cmax [3]: 1300 nM
MRT [4]: 8.9 h
clearance [5]: 1.6 mL/min/kg
Vd [6]: 0.7 L/kg
ED50 [7]: 0.05 mg/kg
Activity [8]: Active
Activity [9]: >50%
inhibition [10]: Dose-dependent effect
Activity [11]: Dose-dependent effect
inhibition [12]: Dose-dependent effect
ED50 [13]: 0.02 mg/kg
Activity [14]: 78%
Activity [15]: 91%
concentration at 24 h [16]: 700 nM
Ratio [17]: 3
Activity [18]: 20%
fraction unbound [19]: 0.01
Activity [20]: Non-toxic
pIC50 [21]: 4.74
pIC50 [22]: < 4.40
pIC50 [23]: < 4.40
pIC50 [24]: < 4.40
logD [25]: 2.68
Activity [26]: 75%
Activity [27]: 45%
concentration at 24 h [28]: 4 nM
Ratio [29]: 5
Activity [30]: Dose-dependent effect
Tmax [31]: 3 h
AUC [32]: 250 µM·h
MRT [33]: 14 h
CL [34]: 0.3%
half-life [35]: 10 h
MRT [36]: 14 h
Vd [37]: 1.4 L/kg
bioavailability [38]: 52%
Ratio [39]: 6
AUC [40]: 25 µM·h
half-life [41]: 3 h
CL [42]: 12%
